Literature values in publication PMC2857392 (Biochemistry, 2010).

Tests used:
[1] = biological target: Stx1 B-subunit (Stx1B); details: read-out: dissociation constant (Kd) for B-subunit monomer
[2] = biological target: Stx1B

Compound | Kd [1] [µM] | Kd [2] [µM]
OC[C@H]1O[C@H](O[C@@H]2[C@H](O)[C@@H](O)[C@H](O[C@H]3[C@H](O)[C@@H](O)C(O)O[C@@H]3CO)O[C@@H]2CO)[C@H](O)[C@@H](O)[C@H]1O (stereo partly drawn) [Pk trisaccharide, Galα1-4Galβ1-4Glc] | 500 to 1000 | 4800
globotriaosylceramide [Gb3] |  | 0.003
